In patent US8710064B2, “2-aryl-4-quinazolinones and their pharmaceutical compositions” (China Medical University, priority 2011, dated 2014):

Test system: C6 glioma cells
Assay: G1 synchronized by Ara-C, flow cytometry
Format: cell-based, rat
Details: 41.6 nM Ara-C for 12 hours
Procedure: At indicated time points (0, 6, 12 and 24 hr), >10^6 cells were collected and fixed in 70% ethanol over 1 hour at −20° C. After staining with PI as described, DNA content of ten thousand cells was analyzed by flow cytometry.
To investigate the influence of MJ-66 on normal glia such as human glia cell line SVGP12 and rat primary glia cells, cells were treated with different concentrations of MJ-66 in vitro (0.00625, 0.0125, 0.025, 0.05, 0.1 and 1 μM) for different time durations (0, 6, 12 and 24 hours) and the cell viability was assessed by MTS assay. Cells alone or treated with DMSO were used as control. […] However, most glia cells in animals are static and their proliferation rate is almost silent. Therefore, cytosine arabinoside (Ara-C), a DNA synthesis inhibitor, was further used to inhibit glioma cell proliferation and glioma cells were then treated with MJ-66 or DMSO as described in “General materials and methods”. Specifically, after C6 glioma cells were treated with 41.6 nM Ara-C for 12 hours, and then treated with solvent (DMSO) or 60 nM MJ-66 for 0, 6, 12 and 24 hours, the cell cycle distributions and DNA content of the cells were monitored by flow cytometry with propidium iodide staining C6 glioma cells treated with 41.6 nM Ara-C for 12 hours (12 hr) were detected by flow cytometry with propidium iodide staining as control.

Nc1ccn([C@@H]2O[C@H](CO)[C@@H](O)[C@@H]2O)c(=O)n1 [Ara-C, cytosine arabinoside, reference compound]
cell cycle state of C6 glioma cells: G1 arrest
